Columns and labels:
[1] = biological target: Muscarinic acetylcholine receptor; experiment: Inhibition of [3H]pirenzepine binding to muscarinic receptor in rat cortical homogenates
Rattus norvegicus = organism: Rattus norvegicus; experiment: In vitro inhibition of acetylcholine induced phosphatidyl inositol hydrolysis in a rat cerebral cortex slice preparation; type: functional
Mus musculus = experiment: In vivo antagonist activity measured as inhibition of oxotremorine induced tremors in mice at 1 mg/kg of ip administration; type: functional; settings: route intraperitoneal

| Structure (SMILES) | Ki [1] | IC50 (Rattus norvegicus) | AD50 (Mus musculus) |
| --- | --- | --- | --- |
| COc1oc(C2=CCCN(C)C2)nc1C | 0.09 µM |  |  |
| CCCCc1nc(C2=CCCN(C)C2)oc1OC | 0.011 µM |  |  |
| CCCCOc1oc(C2=CCCN(C)C2)nc1C(C)CC (stereo not given) | 0.0015 µM |  |  |
| CN1[C@@H]2C[C@@H](OC(=O)[C@H](CO)c3ccccc3)C[C@H]1[C@@H]1O[C@@H]12 [SCOPOLAMINE] |  | 0.0089 µM | 0.1 mg/kg |
| COc1cnc(C2=CCCN(C)C2)o1 | > 1 µM |  |  |
| CCCCCCOc1oc(C2=CCCN(C)C2)nc1C(C)CC (stereo not given) | 0.022 µM |  |  |
| CCc1nc(C2=CCCN(C)C2)oc1OC | 0.03 µM |  |  |
| CCC(C)c1nc(C2=CCCN(C)C2)oc1OC (stereo not given) | 0.002 µM |  |  |
| COc1oc(C2=CCCN(C)C2)nc1C(C)C | 0.01 µM |  |  |
| CCOc1oc(C2=CCCN(C)C2)nc1C | 0.033 µM |  |  |
| COc1oc(C2=CCCN(C)C2)nc1CC(C)C | 0.025 µM |  |  |
| COc1oc(C2=CCCN(C)C2)nc1Cc1ccccc1 | 0.016 µM |  |  |
| CCOc1oc(C2=CCCN(C)C2)nc1C(C)CC (stereo not given) | 0.0008 µM |  |  |
| CCCOc1oc(C2=CCCN(C)C2)nc1C(C)CC (stereo not given) | 0.0008 µM |  |  |

From ChEMBL document CHEMBL1151039, “Muscarinic antagonist activity of 3-(5-alkoxy-oxazol-2-yl)-1,2,5,6-tetrahydropyridines” (Bioorg Med Chem Lett, 1994)
